Laboratory results taken from ChEMBL document CHEMBL5360581, “Discovery of a novel dual functional phenylpyrazole-styryl hybrid that induces apoptotic and autophagic cell death in bladder cancer cells” (Eur J Med Chem, 2023).
Active and inactive are the calls of the source. The calls are words filed in the database; no cut-off is given here.

Columns and labels:
[1] = Selectivity index, ratio of IC50 for cytotoxicity against human NHDF cells to IC50 for cytotoxicity against human A549 cells; assay type: toxicity, cell-based; settings: NHDF cells and A549 cells, read-out: Ratio IC50
EJ-28 [2] = experiment: Antiproliferative activity against human EJ-28 cells assessed as reduction in cell viability at 20 uM measured for 72 hrs by MTT assay; assay type: functional, cell-based
[3] = Selectivity index, ratio of IC50 for cytotoxicity against human NHDF cells to IC50 for cytotoxicity against human EJ-28 cells
EJ-28 [4] = experiment: Cytotoxicity against human EJ-28 cells assessed inhibition of cell growth incubated for 72 hrs by MTT assay; assay type: functional, cell-based; settings: EJ-28, 72 h
[5] = Selectivity index, ratio of IC50 for cytotoxicity against human NHDF cells to IC50 for cytotoxicity against human HT-1080 cells
MCF7 [6] = experiment: Antiproliferative activity against human MCF7 cells assessed as reduction in cell viability at 20 uM measured for 72 hrs by MTT assay; assay type: functional, cell-based
HT-1080 [7] = experiment: Antiproliferative activity against human HT-1080 cells assessed as reduction in cell viability at 20 uM measured for 72 hrs by MTT assay; assay type: functional, cell-based
[8] = Selectivity index, ratio of IC50 for cytotoxicity against human NHDF cells to IC50 for cytotoxicity against human MCF7 cells; assay type: toxicity, cell-based; settings: NHDF cells and MCF7 cells, read-out: Ratio IC50
HT-1080 [9] = experiment: Cytotoxicity against human HT-1080 cells assessed inhibition of cell growth incubated for 72 hrs by MTT assay; assay type: functional, cell-based; settings: HT-1080, 72 h
[10] = Cytotoxicity against human NHDF cells assessed inhibition of cell growth incubated for 72 hrs by MTT assay; assay type: toxicity, cell-based
SW-620 [11] = experiment: Cytotoxicity against human SW620 cells assessed inhibition of cell growth incubated for 72 hrs by MTT assay; assay type: functional, cell-based; settings: SW-620, 72 h
MCF7 [12] = experiment: Cytotoxicity against human MCF7 cells assessed inhibition of cell growth incubated for 72 hrs by MTT assay; assay type: functional, cell-based; settings: MCF7, 72 h
[13] = Selectivity index, ratio of IC50 for cytotoxicity against human NHDF cells to IC50 for cytotoxicity against human SW620 cells
A549 [14] = experiment: Antiproliferative activity against human A549 cells assessed as reduction in cell viability at 20 uM measured for 72 hrs by MTT assay; assay type: functional, cell-based
A549 [15] = experiment: Cytotoxicity against human A549 cells assessed inhibition of cell growth incubated for 72 hrs by MTT assay; assay type: functional, cell-based; settings: A549, 72 h
SW-620 [16] = experiment: Antiproliferative activity against human SW620 cells assessed as reduction in cell viability at 20 uM measured for 72 hrs by MTT assay; assay type: functional, cell-based

SMILES	selectivity ratio [1]	Activity (EJ-28 [2])	Ratio IC50 [3]	IC50 (EJ-28 [4])	Ratio IC50 [5]	Activity (MCF7 [6])	Activity (HT-1080 [7])	selectivity ratio [8]	IC50 (HT-1080 [9])	IC50 at 72 h [10]	IC50 (SW-620 [11])	IC50 (MCF7 [12])	Ratio IC50 [13]	Activity (A549 [14])	IC50 (A549 [15])	Activity (SW-620 [16])
Oc1ccc(Cl)cc1-c1cc(/C=C/c2ccccc2Cl)nn1-c1ccccc1	1.5	Active	1.5	5.1 µM	0.9	Active	Active	0.9	10.9 µM	19.7 µM	9.5 µM	5.7 µM	1.5	Active	13.2 µM	Active
COc1cccc(/C=C/c2cc(-c3cc(Cl)ccc3O)n(-c3ccccc3)n2)c1	2.3	Active	2.3	8.6 µM	2.3	Active	Active	2.3	17.4 µM	45.6 µM	19.5 µM	10.9 µM	2.3	Active	16.5 µM	Active
Oc1ccc(Cl)cc1-c1cc(/C=C/c2cccs2)nn1-c1ccccc1	2	Active	2	11.6 µM	2	Active	Active	2	19.6 µM	39.6 µM	19 µM	5.5 µM	2	Active	17.1 µM	Active
Oc1ccc(Cl)cc1-c1cc(/C=C/c2ccc(Cl)cc2)nn1-c1ccccc1	2	Active	2	6.5 µM	2	Active	Active	2	17.4 µM	42.9 µM	16.6 µM	10.6 µM	2	Active	21.5 µM	Active
Oc1ccccc1-c1cc(/C=C/c2cccc(Cl)c2)nn1-c1ccccc1	1.6	Active	1.6	8.9 µM	1.6	Active	Active	1.6	13.8 µM	39.4 µM	11.6 µM	10.9 µM	1.6	Active	24.3 µM	Active
